Experimental findings from ChEMBL document CHEMBL1671722, “Comparative in vitro activity profiles of novel bis-indole antibacterials against gram-positive and gram-negative clinical isolates” (Antimicrob Agents Chemother, 2010) are described below.

Values after ≈ are worked out from the molar mass of the structure shown.

Series [1] concerns Clostridioides difficile. Kind of series: Antimicrobial activity against Clostridium difficile by broth microdilution method. It counts as functional. A general note: In broth dilution the organism is exposed to a series of concentrations in liquid medium.
Series [2] relates to Burkholderia cepacia. Kind of series: Antimicrobial activity against Burkholderia cepacia by broth microdilution method. In kind it is functional.
The test system of series [3] is Escherichia coli. Kind of series: Antimicrobial activity against Escherichia coli by broth microdilution method. In kind it is functional.
Series [4] deals with Klebsiella pneumoniae. The experiment in a line: Antimicrobial activity against Klebsiella pneumoniae by broth microdilution method. In kind it is functional.
In series [5] the test system is Klebsiella pneumoniae. Kind of series: Antimicrobial activity against ESBL-production Klebsiella pneumoniae by broth microdilution method. It counts as functional.
Series [6] concerns Acinetobacter baumannii. The experiment in a line: Antimicrobial activity against multiple dug-resistant Acinetobacter baumannii by broth microdilution method. In kind it is functional.
Series [7] relates to Acinetobacter baumannii. The experiment in a line: Antimicrobial activity against Acinetobacter baumannii by broth microdilution method. It counts as functional.
For series [8], the system named is Pseudomonas aeruginosa. The experiment in a line: Antimicrobial activity against Pseudomonas aeruginosa by broth microdilution method. In kind it is functional.
The subject of series [9] is Proteus mirabilis. The experiment in a line: Antimicrobial activity against Proteus mirabilis by broth microdilution method. It counts as functional.
For series [10], the system named is Serratia marcescens. The experiment in a line: Antimicrobial activity against Serratia marcescens by broth microdilution method. It counts as functional.
In series [11] the test system is Enterococcus faecium. Kind of series: Antimicrobial activity against vancomycin-resistant Enterococcus faecium by broth microdilution method. It counts as functional.
A short description of series [12]: Cytotoxicity against HeLa cells after 3 days by MTS assay. It counts as cell-based. The note with it: human. A general note: Tetrazolium assays rely on reduction of a dye to a coloured formazan, in cell work by metabolically active cells.
Series [13] concerns Haemophilus influenzae. The experiment in a line: Antimicrobial activity against Haemophilus influenzae by broth microdilution method. It counts as functional.
Series [14] deals with Streptococcus pneumoniae. The experiment in a line: Antimicrobial activity against penicillin-intermediate Streptococcus pneumoniae by broth microdilution method. It counts as functional.
Series [15] deals with Streptococcus pneumoniae. The experiment in a line: Antimicrobial activity against penicillin-susceptible Streptococcus pneumoniae by broth microdilution method. In kind it is functional.
For series [16], the system named is Streptococcus pneumoniae. The experiment in a line: Antimicrobial activity against penicillin-resistant Streptococcus pneumoniae by broth microdilution method. In kind it is functional.
In series [17] the test system is Enterococcus faecalis. The experiment in a line: Antimicrobial activity against vancomycin-resistant Enterococcus faecalis by broth microdilution method. In kind it is functional.
The subject of series [18] is Staphylococcus epidermidis. The experiment in a line: Antimicrobial activity against methicillin-susceptible Staphylococcus epidermidis by broth microdilution method. In kind it is functional.
Series [19] concerns Enterococcus faecalis. The experiment in a line: Antimicrobial activity against vancomycin-susceptible Enterococcus faecalis by broth microdilution method. It counts as functional.
For series [20], the system named is Streptococcus agalactiae. Kind of series: Antimicrobial activity against Streptococcus agalactiae by broth microdilution method. It counts as functional.
The subject of series [21] is Staphylococcus epidermidis. The experiment in a line: Antimicrobial activity against methicillin-resistant Staphylococcus epidermidis by broth microdilution method. In kind it is functional.
Series [22] has as its system Enterococcus faecium. The experiment in a line: Antimicrobial activity against vancomycin-susceptible Enterococcus faecium by broth microdilution method. It counts as functional.
For series [23], the system named is Staphylococcus aureus. The experiment in a line: Antimicrobial activity against methicillin-resistant Staphylococcus aureus by broth microdilution method. It counts as functional.
The subject of series [24] is Staphylococcus aureus. Kind of series: Antimicrobial activity against methicillin-susceptible Staphylococcus aureus by broth microdilution method. In kind it is functional.

In [1], `CCC[C@@H]1C[C@@H](C(=O)N[C@@H]([C@H]2O[C@H](SC)[C@H](O)[C@@H](O)[C@H]2O)[C@H](C)Cl)N(C)C1` [CLINDAMYCIN] gave an MIC50 of 4 µg/mL (≈ 9.41 µM) and an MIC90 greater than 8 µg/mL.
Turning to `O=C(O)c1cn(C2CC2)c2cc(N3CCNCC3)c(F)cc2c1=O` [CIPROFLOXACIN], the MIC50 in series [2] was 2 µg/mL (≈ 6.04 µM); in [3], 2 µg/mL (≈ 6.04 µM); in [4], greater than 32 µg/mL; in series [5], greater than 8 µg/mL; in series [6] it was 2 µg/mL (≈ 6.04 µM); in [7] it was 0.25 µg/mL (≈ 0.754 µM). For the same molecule, the figures for the MIC50 in [8] and in series [9] were greater than 8 µg/mL and 2 µg/mL (≈ 6.04 µM), respectively. For the same molecule, the MIC90 in [2] was 2 µg/mL (≈ 6.04 µM); in series [3] it was 4 µg/mL (≈ 12.1 µM); in series [4], greater than 32 µg/mL; in [5], greater than 8 µg/mL; in series [6], 4 µg/mL (≈ 12.1 µM); in [7], greater than 2 µg/mL. For the same molecule, the MIC90 in series [8] and in series [9] was greater than 8 µg/mL throughout. In [8], this molecule yielded an MIC greater than 8 µg/mL.
As for `Cc1ncc([N+](=O)[O-])n1CCO` [METRONIDAZOLE], in series [1], the MIC50 is 0.12 µg/mL (≈ 0.701 µM) and the MIC90 came out at 0.5 µg/mL (≈ 2.92 µM).
As to GENTAMICIN, the MIC50 in series [2] was determined as 0.5 µg/mL; in series [3] it was 1 µg/mL; in series [4], 0.5 µg/mL; in series [5], 0.25 µg/mL; in [6], 0.5 µg/mL; in series [7], 0.06 µg/mL. The values for the MIC50 in [8], in series [9] and in series [10] were 2 µg/mL, 1 µg/mL and 4 µg/mL, respectively. Also, the MIC90 in series [2] was greater than 8 µg/mL; in [3] it was 1 µg/mL; in series [4], 2 µg/mL; in [5] it was 1 µg/mL; in [6], 4 µg/mL; in series [7], greater than 8 µg/mL. Besides, the MIC90 was greater than 32 µg/mL in series [8], 8 µg/mL in series [9] and 4 µg/mL in series [10].
Consider `c1cc2cc(-c3ccc(-c4cc5ccc(C6=NCCCN6)cc5[nH]4)cc3)[nH]c2cc1C1=NCCCN1`, for which the figures for the MIC in series [11], in [20] and in series [10] were 0.004 µg/mL (≈ 0.00846 µM), 0.03 µg/mL (≈ 0.0635 µM) and 0.12 µg/mL (≈ 0.254 µM), respectively. Besides, the MIC50 in [11] stood at 0.004 µg/mL (≈ 0.00846 µM); in series [2], 0.06 µg/mL (≈ 0.127 µM); in series [3], 0.12 µg/mL (≈ 0.254 µM); in series [13], 1 µg/mL (≈ 2.12 µM); in series [14], 0.03 µg/mL (≈ 0.0635 µM); in series [15], 0.03 µg/mL (≈ 0.0635 µM). The MIC50 in series [16] was 0.03 µg/mL (≈ 0.0635 µM); in [4], 0.25 µg/mL (≈ 0.529 µM); in [5] it was 0.12 µg/mL (≈ 0.254 µM); in series [17], 0.015 µg/mL (≈ 0.0317 µM); in series [18] it was 0.03 µg/mL (≈ 0.0635 µM); in [6], 2 µg/mL (≈ 4.23 µM). For the same molecule, the MIC50 was determined as 0.06 µg/mL (≈ 0.127 µM) in series [19]; 0.03 µg/mL (≈ 0.0635 µM) in series [20]; 0.5 µg/mL (≈ 1.06 µM) in series [7]; 0.25 µg/mL (≈ 0.529 µM) in [8]; 0.015 µg/mL (≈ 0.0317 µM) in series [21]; 1 µg/mL (≈ 2.12 µM) in series [9]. Also, the MIC50 in series [1] is 0.06 µg/mL (≈ 0.127 µM); in [22], 0.004 µg/mL (≈ 0.00846 µM); in [10], 0.12 µg/mL (≈ 0.254 µM); in series [23], 0.06 µg/mL (≈ 0.127 µM); in series [24], 0.12 µg/mL (≈ 0.254 µM). The MIC90 in series [11] worked out at 0.004 µg/mL (≈ 0.00846 µM); in series [2] it was 0.12 µg/mL (≈ 0.254 µM); in [3], 0.25 µg/mL (≈ 0.529 µM); in series [13], 4 µg/mL (≈ 8.46 µM); in series [14] it was 0.03 µg/mL (≈ 0.0635 µM); in series [15], 0.03 µg/mL (≈ 0.0635 µM). The MIC90 in series [16] turned out to be 0.06 µg/mL (≈ 0.127 µM); in series [4] it was 0.5 µg/mL (≈ 1.06 µM); in [5], 0.5 µg/mL (≈ 1.06 µM); in series [17] it was 0.03 µg/mL (≈ 0.0635 µM); in [18], 0.06 µg/mL (≈ 0.127 µM); in series [6] it was 4 µg/mL (≈ 8.46 µM). In addition, the MIC90 in series [19] stood at 0.06 µg/mL (≈ 0.127 µM); in series [20], 0.03 µg/mL (≈ 0.0635 µM); in [7] it was 4 µg/mL (≈ 8.46 µM); in series [8], 1 µg/mL (≈ 2.12 µM); in series [21], 0.06 µg/mL (≈ 0.127 µM); in [9], 2 µg/mL (≈ 4.23 µM). Also, the MIC90 in series [1] is 0.12 µg/mL (≈ 0.254 µM); in series [22], 0.015 µg/mL (≈ 0.0317 µM); in [10], 0.25 µg/mL (≈ 0.529 µM); in series [23], 0.12 µg/mL (≈ 0.254 µM); in series [24], 0.5 µg/mL (≈ 1.06 µM). This molecule also yielded a CC50 at 72 h in [12] of 4 µg/mL (≈ 8.46 µM).

A word on the MIC: it is the lowest concentration found to suppress growth. For orientation: CC50 means the concentration giving 50% cytotoxicity. Low values mean harm at low concentration, high ones better tolerance by the cells.
